For series [1] the following is noted: cited from earlier work.
The test system of a further series is prostates cancers. The settings on record: mouse, in vivo; cited from earlier work.
Series [2] deals with cancer cell lines (WM115, KS1617). In words: Fluorescence imaging of binding of IC3-OSu-labeled carrier proteins to cancer cells. Type of series: cell-based. The settings on record: 100 μl of 0.1 mg/ml labeled protein, about 10 min, room temperature, washed 3 times with PBS. How it is done: WM115 (high-level expression of αvβ3 integrin) and MCF7 (low level expression of αvβ3 integrin, about 10% of WM115) cell lines were grown in α MEM medium enriched with 10% fetal bovine serum (FBS) and 60 μg/ml of penicillin and 100 μg/ml of streptomycin. KS1617 cell line (high-level expression of CD13) was grown in RPMI1640 medium also enriched with 10% FBS and 60 μg/ml of penicillin and 100 μg/ml of streptomycin. The cell cultures were passed to fresh medium every 2–3 days. For fluorescent imaging, the cells were grown in 4-well culture slides to about 70% confluence before use.
To facilitate detection, the recombinant CTP-containing carrier proteins were labeled with Dojindo IC3-Osu, which reacts with lysine residues of the protein, according to the recommended protocols by the manufacturer (Dojindo, Gaithersburg, Md.) (FIG. 5). About 0.5 mg/ml protein was reacted with 3-fold excess of the fluorescent dye in dark at room temperature for 1 hr, and the extra dye was removed using Bio-Rad Econo-Pac desalting column. The labeling efficiency was measured using UV-vis spectroscopy. On average, about 25–35% of protein molecules were labeled.
The binding specificity between CTP-containing carrier proteins and various cancer cell lines was evaluated with both the native carrier proteins and normal cell lines as negative controls. […]

Structures can show the parent of a compound that is named as a salt. Numbered stars: 1 amine (or outer) side, 2 acyl side, 3 side chain; on linkers, the order of the positions; unused ones are H or OH. Bridge positions count the residues as written; N and C are the ends. Square brackets hold non-standard residues; d marks the D form. Peptide text beside a SMILES is read from it. I, II: the chains in the order shown. Actinocin(9to1) = Cc1c2oc3c(C)ccc(C(=O)[*:1])c3nc-2c(C(=O)[*:2])c(N)c1=O; NMeV = CN[C@H](C(=O)O)C(C)C; Sar = CNCC(=O)O

`Cc1c2oc3c(C)ccc(C(=O)N[C@@H]4C(=O)N[C@H](C(C)C)C(=O)N5CCC[C@H]5C(=O)N(C)CC(=O)N(C)[C@@H](C(C)C)C(=O)O[C@@H]4C)c3nc-2c(C(=O)N[C@@H]2C(=O)N[C@H](C(C)C)C(=O)N3CCC[C@H]3C(=O)N(C)CC(=O)N(C)[C@@H](C(C)C)C(=O)O[C@@H]2C)c(N)c1=O` [Actinomycin D] (I: T[dV]P[Sar][NMeV] / II: T[dV]P[Sar][NMeV]; ester I:1-I:C, II:1-II:C; linker I:N-II:N via Actinocin(9to1)): in series [1] (in vivo), the “part of the dose excreted intact into the bile” value is “Half of the dose”. Turning to `COc1cccc2c1C(=O)c1c(O)c3c(c(O)c1C2=O)C[C@@](O)(C(C)=O)C[C@@H]3O[C@H]1C[C@H](N)[C@H](O)[C@H](C)O1` [Daunorubicin, 5,12-Naphthacenedione, (8S-cis)-8-acetyl-10-((3-amino-2,3,6-trideoxy-a-L-lyxo-hexanopyranosyl)oxy)-7,8,9,10-tetrahydro-6,8,11-trihydroxy-10-methoxy-, hydrochloride], the “secreted into the bile” value in series [1] (in vivo) is “about 40%”. For the molecule `CC[C@]1(O)C[C@@H]2CN(CCc3c([nH]c4ccccc34)[C@@](C(=O)OC)(c3cc4c(cc3OC)N(C)[C@H]3[C@@](O)(C(=O)OC)[C@H](OC(C)=O)[C@]5(CC)C=CCN6CC[C@]43[C@@H]65)C2)C1` [Vinblastine], in series [1] (after intravenous injection), the “plasma half-life after distribution (first value)” value is reported as “approximately 1 hours” and the “plasma half-life after distribution (second value)” value was about 20 h. In the case of “SMSIARL [cancer-targeting peptide for prostate cancer]”, the “targeting to prostates cancers relative to other organs” value in the series with prostates cancers is reported as 10–15 times.

B1: native CagA: His-tagged native C-1027 apo-protein encoded by the cagA gene of Streptomyces globisporus; negative control (protein)
chain: APAFSVSPASGLSDGQSVSVSVSGAAAGETYYIAQCAPVGGQDACNPATATSFTTDASGAASFSFVVRKSYTGSTPEGTPVGSVDCATAACNLGAGNSGLDLGHVALTFG
modifications: left off: small tags and cut ends
notes: His-tagged native C-1027 apo-protein encoded by the cagA gene of Streptomyces globisporus; negative control
B1: the “fluorescence detected on cells after incubation with labeled protein” value in series [2] is “no significant fluorescence”.

B2: native NcsA: His-tagged native neocarzinostatin apo-protein encoded by the ncsA gene of Streptomyces carzinostaticus; negative control (protein)
chain: AAPTATVTPSSGLSDGTVVKVAGAGLQAGTAYDVGQCAWVDTGVLACNPADFSSVTADANGSASTSLTVRRSFEGFLFDGTRWGTVDCTTAACQVGLSDAAGNGPEGVAISFN
modifications: left off: small tags and cut ends
notes: His-tagged native neocarzinostatin apo-protein encoded by the ncsA gene of Streptomyces carzinostaticus; negative control
For B2, the “fluorescence detected on cells after incubation with labeled protein” value in series [2] was “no significant fluorescence”.

These data come from patent US7122353B2, “Targeted carrier fusions for delivery of chemotherapeutic agents” (Wisconsin Alumni Research Foundation, priority 2003, dated 2006).
